{"source": "ChEMBL document CHEMBL1122407", "about": "“Synthesis and biological activity of various 3'-azido and 3'-amino analogues of 5-substituted pyrimidine deoxyribonucleosides” (1983)", "key": {"[1]": {"biological_target": "T1, Thymidine kinase, cytosolic (Mus musculus) (UniProt P04184)", "T1 sequence (whole entry)": "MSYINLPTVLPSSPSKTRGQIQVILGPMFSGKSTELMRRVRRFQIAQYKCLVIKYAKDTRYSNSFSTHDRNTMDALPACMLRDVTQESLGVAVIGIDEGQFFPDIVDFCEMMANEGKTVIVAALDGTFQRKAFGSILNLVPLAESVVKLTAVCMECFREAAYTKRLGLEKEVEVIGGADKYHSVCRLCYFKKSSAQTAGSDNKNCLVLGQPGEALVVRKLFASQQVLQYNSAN", "test": "Inhibitory activity against thymidine kinase (TK) from L1210 cells", "assay_type": "cell-based", "set-up": "concentration or dose not given beside the values"}, "L1210 [2]": {"system": "L1210", "test": "In vitro inhibition against replication of L1210 murine cells", "assay_type": "functional", "settings": "Mus musculus, read-out: ED50 (the source's name)"}, "[3]": {"biological_target": "Deoxycytidine kinase (Mus musculus) (UniProt P43346)", "sequence (P43346 whole entry, looked up)": "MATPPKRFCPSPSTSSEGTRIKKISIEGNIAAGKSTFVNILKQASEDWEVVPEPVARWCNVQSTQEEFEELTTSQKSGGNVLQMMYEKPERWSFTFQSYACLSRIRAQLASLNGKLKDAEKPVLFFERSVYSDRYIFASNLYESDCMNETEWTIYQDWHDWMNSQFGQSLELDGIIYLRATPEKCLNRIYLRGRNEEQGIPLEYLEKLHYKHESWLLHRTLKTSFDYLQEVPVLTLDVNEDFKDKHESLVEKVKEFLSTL", "test": "Inhibitory activity against deoxycytidine kinase from L1210 cells", "assay_type": "cell-based", "set-up": "concentration or dose not given beside the values; scale not given: the % may be the effect or the level left"}, "Sarcoma-180 [4]": {"system": "Sarcoma-180", "test": "In vitro inhibition against replication of Sarcoma-80 cells", "assay_type": "functional", "settings": "Mus musculus, read-out: ED50 (the source's name)"}, "L1210 [5]": {"system": "L1210", "test": "In vitro inhibition against replication of L1210 murine cells; inactive", "assay_type": "functional, cell-based", "settings": "Mus musculus"}, "Sarcoma-180 [6]": {"system": "Sarcoma-180", "test": "In vitro inhibition against replication of […] cells; inactive", "assay_type": "functional, cell-based", "settings": "Mus musculus"}}, "note": "pEC50: −log10 of the molar value. Values joined by “and” are separate entries in the source; they are usually repeats but may differ in a detail not shown here. Equal entries are not always repeated. Active and inactive are the calls of the source. The calls are words filed in the database; no cut-off is given here.", "data": [{"smiles": "Cc1cn([C@H]2C[C@@H](N)[C@@H](CO)O2)c(=O)nc1N", "values": [{"measurement": "Activity", "setting": "[1]", "result": "93% and 80%"}, {"measurement": "pEC50", "setting": "L1210 [2]", "result": 4.60}, {"measurement": "Activity", "setting": "[3]", "result": "90% and 82%"}, {"measurement": "pEC50", "setting": "Sarcoma-180 [4]", "result": 4.70}]}, {"smiles": "[N-]=[N+]=N[C@H]1C[C@H](n2ccc(=O)[nH]c2=O)O[C@@H]1CO", "values": [{"measurement": "ED50", "setting": "L1210 [5]", "result": "inactive"}, {"measurement": "Activity", "setting": "[3]", "result": 92, "unit": "%"}, {"measurement": "ED50", "setting": "Sarcoma-180 [6]", "result": "inactive"}]}, {"smiles": "[N-]=[N+]=N[C@H]1C[C@H](n2ccc(N)nc2=O)O[C@@H]1CO", "values": [{"measurement": "Activity", "setting": "[1]", "result": "85% and 72%"}, {"measurement": "ED50", "setting": "L1210 [5]", "result": "inactive"}, {"measurement": "Activity", "setting": "[3]", "result": "86% and 78%"}, {"measurement": "ED50", "setting": "Sarcoma-180 [6]", "result": "inactive"}]}, {"smiles": "[N-]=[N+]=N[C@H]1C[C@H](n2cc(F)c(=O)[nH]c2=O)O[C@@H]1CO", "values": [{"measurement": "Activity", "setting": "[1]", "result": "78% and 71%"}, {"measurement": "pEC50", "setting": "L1210 [2]", "result": 4.70}, {"measurement": "Activity", "setting": "[3]", "result": "94% and 89%"}, {"measurement": "pEC50", "setting": "Sarcoma-180 [4]", "result": 4.40}]}, {"smiles": "N[C@@H]1C[C@H](n2cc(F)c(=O)[nH]c2=O)O[C@@H]1CO", "values": [{"measurement": "Activity", "setting": "[1]", "result": "92% and 82%"}, {"measurement": "pEC50", "setting": "L1210 [2]", "result": 4.82}, {"measurement": "Activity", "setting": "[3]", "result": 93, "unit": "%"}, {"measurement": "pEC50", "setting": "Sarcoma-180 [4]", "result": 6.00}]}, {"smiles": "Cc1cn([C@H]2C[C@H](N)[C@@H](CO)O2)c(=O)[nH]c1=O", "values": [{"measurement": "Activity", "setting": "[1]", "result": "95% and 72%"}, {"measurement": "Activity", "setting": "[3]", "result": "96% and 87%"}]}, {"smiles": "Nc1ccn([C@H]2C[C@H](N)[C@@H](CO)O2)c(=O)n1", "values": [{"measurement": "Activity", "setting": "[1]", "result": "77% and 84%"}, {"measurement": "pEC50", "setting": "L1210 [2]", "result": 6.15}, {"measurement": "Activity", "setting": "[3]", "result": "89% and 85%"}, {"measurement": "pEC50", "setting": "Sarcoma-180 [4]", "result": 5.40}]}, {"smiles": "N[C@H]1C[C@H](n2ccc(=O)[nH]c2=O)O[C@@H]1CO", "values": [{"measurement": "pEC50", "setting": "L1210 [2]", "result": 4.74}, {"measurement": "Activity", "setting": "[3]", "result": "97% and 94%"}, {"measurement": "pEC50", "setting": "Sarcoma-180 [4]", "result": 4.30}]}, {"smiles": "Nc1nc(=O)n([C@H]2C[C@@H](N)[C@@H](CO)O2)cc1F", "values": [{"measurement": "Activity", "setting": "[1]", "result": "81% and 70%"}, {"measurement": "pEC50", "setting": "L1210 [2]", "result": 5.00}, {"measurement": "Activity", "setting": "[3]", "result": "82% and 73%"}, {"measurement": "pEC50", "setting": "Sarcoma-180 [4]", "result": 6.00}]}, {"smiles": "Cc1cn([C@H]2C[C@@H](N=[N+]=[N-])[C@@H](CF)O2)c(=O)[nH]c1=O", "values": [{"measurement": "Activity", "setting": "[1]", "result": "93% and 95%"}, {"measurement": "ED50", "setting": "L1210 [5]", "result": "inactive"}, {"measurement": "Activity", "setting": "[3]", "result": "93% and 89%"}, {"measurement": "ED50", "setting": "Sarcoma-180 [6]", "result": "inactive"}]}, {"smiles": "O=c1ccn([C@H]2C[C@H](O)[C@@H](CO)O2)c(=O)[nH]1", "values": [{"measurement": "Activity", "setting": "[3]", "result": "88% and 92%"}]}, {"smiles": "Cc1cn([C@H]2C[C@H](N=[N+]=[N-])[C@@H](CO)O2)c(=O)nc1N", "values": [{"measurement": "Activity", "setting": "[1]", "result": "92% and 81%"}, {"measurement": "ED50", "setting": "L1210 [5]", "result": "inactive"}, {"measurement": "Activity", "setting": "[3]", "result": "62% and 55%"}, {"measurement": "ED50", "setting": "Sarcoma-180 [6]", "result": "inactive"}]}, {"smiles": "Cc1cn([C@H]2C[C@@H](N)[C@@H](CF)O2)c(=O)[nH]c1=O", "values": [{"measurement": "Activity", "setting": "[1]", "result": "89% and 83%"}, {"measurement": "ED50", "setting": "L1210 [5]", "result": "inactive"}, {"measurement": "Activity", "setting": "[3]", "result": "91% and 88%"}, {"measurement": "ED50", "setting": "Sarcoma-180 [6]", "result": "inactive"}]}, {"smiles": "N[C@@H]1C[C@H](n2cc(C(F)(F)F)c(=O)[nH]c2=O)O[C@@H]1CO", "values": [{"measurement": "Activity", "setting": "[1]", "result": "81% and 61%"}, {"measurement": "pEC50", "setting": "L1210 [2]", "result": 3.82}, {"measurement": "Activity", "setting": "[3]", "result": "101% and 87%"}, {"measurement": "pEC50", "setting": "Sarcoma-180 [4]", "result": 4.00}]}, {"smiles": "[N-]=[N+]=N[C@H]1C[C@H](n2cc(C(F)(F)F)c(=O)[nH]c2=O)O[C@@H]1CO", "values": [{"measurement": "pEC50", "setting": "L1210 [2]", "result": 3.40}, {"measurement": "Activity", "setting": "[3]", "result": "91% and 85%"}, {"measurement": "pEC50", "setting": "Sarcoma-180 [4]", "result": 4.00}]}, {"smiles": "Cc1cn([C@H]2C[C@H](N=[N+]=[N-])[C@@H](CO)O2)c(=O)[nH]c1=O", "values": [{"measurement": "Activity", "setting": "[3]", "result": "89% and 84%"}]}, {"smiles": "O=c1[nH]c(=O)n([C@H]2C[C@H](O)[C@@H](CO)O2)cc1I", "values": [{"measurement": "Activity", "setting": "[3]", "result": "87% and 97%"}]}, {"smiles": "N[C@@H]1C[C@H](n2cc(I)c(=O)[nH]c2=O)O[C@@H]1CO", "values": [{"measurement": "Activity", "setting": "[1]", "result": "95% and 71%"}, {"measurement": "pEC50", "setting": "L1210 [2]", "result": 3.40}, {"measurement": "Activity", "setting": "[3]", "result": "87% and 91%"}]}, {"smiles": "[N-]=[N+]=N[C@H]1C[C@H](n2cc(F)c(N)nc2=O)O[C@@H]1CO", "values": [{"measurement": "Activity", "setting": "[1]", "result": "88% and 103%"}, {"measurement": "pEC50", "setting": "L1210 [2]", "result": 4.60}, {"measurement": "Activity", "setting": "[3]", "result": "70% and 61%"}]}]}
